Experimental data as given in patent publication US8614201B2 (Janssen Pharmaceutica NV, priority 2009, dated 2013).

Target: Human TRPA1 (Homo sapiens, UniProt O75762)
Assay: Assay 1: In vitro cellular testing of TRPA1 modulation (CHO-TREx, Fluo-3 calcium fluorescence, AITC agonist)
Type: cell-based
Design: expressed in transfected cells; host or cells: CHO-TREx cells (Invitrogen), vector pcDNA4/TO
Details: CHO-TREx cells expressing human TRPA1; Fluo-3 fluorescence (FLIPR/Tetra); agonist 15 μM allyl isothiocyanate (AITC); 30 minute antagonist incubation
Procedure: Assay 1: In Vitro Cellular Testing of TRPA1 Modulation
Human TRPA1 (NCBI accession number NM_007332.1) was cloned into pcDNA4/TO. CHO-TREx cells (Invitrogen, Carlsbad, Calif.) were stably transfected with pcDNA4/TO-TRPA1 using lipofection to generate a clonal cell line that expressed human TRPA1 in a tetracycline-inducible manner. Culture medium used was Ham's F-12 supplemented with 10% fetal bovine serum, 2 mM L-glutamine, 5 μg/ml blasticidin and 200 μg/ml zeocin. Cells were seeded in black-walled clear-bottom 96-well plates at a density of 50,000 cells per well and cultured overnight at 37° C. with 5% CO2 in culture medium supplemented with 1 μg/ml tetracycline. On the day of the experiment, cells were washed 3 times with HEPES buffered saline (in mM: NaCl 137, MgCl2 0.5, KCl 2, dextrose 5, CaCl2 2 and HEPES 10; pH 7.4). Cells were then loaded with calcium-sensitive fluorescent dye by incubation in the presence of 4 μM Fluo-3 AM (TefLabs, Austin, Tex.) at room temperature in the dark for 60 minutes. After incubation with dye, cells were washed in assay buffer and, if appropriate, antagonists were added at this time. Following a further 30 minute incubation, cells were assayed using a Fluorometric Imaging Plate Reader (FLIPR™) or a Tetra (both manufactured by Molecular Devices, CA) to simultaneously monitor Fluo-3 fluorescence in all wells (λexcitation=488 nm, λemission=540 nm). Changes in fluorescence were monitored for 3 minutes after the addition of 15 μM allyl isothiocyanate (AITC) as an agonist. Concentration-dependence of receptor blocking was determined by exposing each well of cells in duplicate rows of a 96-well plate to a serial dilution of test compound. The concentration series usually started at 10 μM with a three-fold serial decrement in concentration. The magnitude of the response to agonist challenge was determined by measuring the fluorescence before and 3 minutes after the addition of the agonist. The degree of blocking was determined by comparing the response to that of negative (no added antagonist) and positive (10 μM ruthenium red) control wells. Data were analyzed using a non-linear regression program (Origin; OriginLab, MA) to fit the concentration-response data to a Hill function. Antagonist potencies were determined as the concentration required to produce 50% reduction in the response as compared to the negative and positive controls.

Human TRPA1, sequence (O75762 whole entry): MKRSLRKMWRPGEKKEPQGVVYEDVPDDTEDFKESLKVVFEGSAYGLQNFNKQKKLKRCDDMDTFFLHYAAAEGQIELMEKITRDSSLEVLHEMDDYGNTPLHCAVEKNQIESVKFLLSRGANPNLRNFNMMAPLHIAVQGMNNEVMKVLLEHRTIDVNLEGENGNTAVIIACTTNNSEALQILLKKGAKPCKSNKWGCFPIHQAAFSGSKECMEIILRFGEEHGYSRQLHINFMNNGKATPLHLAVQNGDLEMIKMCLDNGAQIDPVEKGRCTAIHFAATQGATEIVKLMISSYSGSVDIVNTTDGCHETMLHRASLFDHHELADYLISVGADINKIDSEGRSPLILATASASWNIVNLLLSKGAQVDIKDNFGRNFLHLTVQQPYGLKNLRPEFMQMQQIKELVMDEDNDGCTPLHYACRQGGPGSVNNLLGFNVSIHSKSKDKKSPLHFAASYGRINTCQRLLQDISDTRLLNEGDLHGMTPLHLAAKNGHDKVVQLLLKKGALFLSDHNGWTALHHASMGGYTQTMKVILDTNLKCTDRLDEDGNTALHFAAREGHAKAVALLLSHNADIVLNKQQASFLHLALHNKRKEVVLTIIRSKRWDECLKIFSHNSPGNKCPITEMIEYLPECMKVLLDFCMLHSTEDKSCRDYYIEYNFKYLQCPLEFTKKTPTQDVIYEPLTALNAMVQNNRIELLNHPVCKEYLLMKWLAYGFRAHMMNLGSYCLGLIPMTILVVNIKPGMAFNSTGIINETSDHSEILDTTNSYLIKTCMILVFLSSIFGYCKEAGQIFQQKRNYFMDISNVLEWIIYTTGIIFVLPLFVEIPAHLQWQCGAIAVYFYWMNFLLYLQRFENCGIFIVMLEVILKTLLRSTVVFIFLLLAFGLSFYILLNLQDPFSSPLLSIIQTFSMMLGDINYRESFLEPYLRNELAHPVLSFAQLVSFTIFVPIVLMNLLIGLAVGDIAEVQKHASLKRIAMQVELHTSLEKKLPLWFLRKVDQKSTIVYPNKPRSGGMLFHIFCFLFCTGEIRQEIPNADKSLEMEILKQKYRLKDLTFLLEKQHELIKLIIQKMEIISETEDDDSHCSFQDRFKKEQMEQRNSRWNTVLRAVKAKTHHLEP

Row | SMILES | IC50 [nM]
1 | O=C(NCc1cc(-c2ccc(C(F)(F)F)cc2)nc(N2CCN(Cc3ccccn3)CC2)n1)[C@@H]1CCCN1S(=O)(=O)c1ccc(F)cc1 [Example 22, 1-(4-Fluoro-benzenesulfonyl)-pyrrolidine-2S-carboxylic acid [2-(4-pyridin-2-ylmethyl-piperazin-1-yl)-6-(4-trifluoromethyl-phenyl)-pyrimidin-4-ylmethyl]-amide] | 130
2 | O=C(NCc1cc(-c2ccc(C(F)(F)F)cc2)nc(N2CCNCC2)n1)[C@@H]1CCCN1S(=O)(=O)c1ccc(F)cc1 [Example 23, 1-(4-Fluoro-benzenesulfonyl)-pyrrolidine-2S-carboxylic acid [2-piperazin-1-yl-6-(4-trifluoromethyl-phenyl)-pyrimidin-4-ylmethyl]-amide] | 4420
3 | CC(C)CN1CCN(c2nc(CNC(=O)[C@@H]3CCCN3S(=O)(=O)c3ccc(Cl)s3)cc(-c3ccc(C(F)(F)F)cc3)n2)CC1 [Example 24, 1-(5-Chloro-thiophene-2-sulfonyl)-pyrrolidine-2S-carboxylic acid [2-(4-isobutyl-piperazin-1-yl)-6-(4-trifluoromethyl-phenyl)-pyrimidin-4-ylmethyl]-amide] | 24
4 | CC1CCCN1c1nc(CNC(=O)[C@@H]2CCCN2S(=O)(=O)c2ccc(F)cc2)cc(-c2ccc(C(F)(F)F)cc2)n1 (stereo partly drawn) [Example 25, 1-(4-Fluoro-benzenesulfonyl)-pyrrolidine-2S-carboxylic acid [2-(2-methyl-pyrrolidin-1-yl)-6-(4-trifluoromethyl-phenyl)-pyrimidin-4-ylmethyl]-amide] | 63
5 | CNc1nc(CNC(=O)[C@@H]2CCCN2S(=O)(=O)c2ccc(Cl)s2)cc(-c2ccc(C(F)(F)F)cc2)n1 [Example 28, 1-(5-Chloro-thiophene-2-sulfonyl)-pyrrolidine-2S-carboxylic acid [2-methylamino-6-(4-trifluoromethyl-phenyl)-pyrimidin-4-ylmethyl]-amide] | 81
6 | CN(C)[C@@H]1CCN(c2nc(CNC(=O)[C@@H]3CCCN3S(=O)(=O)c3ccc(Cl)s3)cc(-c3ccc(C(F)(F)F)cc3)n2)C1 [Example 32, 1-(5-Chloro-thiophene-2-sulfonyl)-pyrrolidine-2S-carboxylic acid [2-(3R-dimethylamino-pyrrolidin-1-yl)-6-(4-trifluoromethyl-phenyl)-pyrimidin-4-ylmethyl]-amide] | 1020
7 | CN(C)[C@H]1CCN(c2nc(CNC(=O)[C@@H]3CCCN3S(=O)(=O)c3ccc(Cl)s3)cc(-c3ccc(C(F)(F)F)cc3)n2)C1 [Example 33, 1-(5-Chloro-thiophene-2-sulfonyl)-pyrrolidine-2S-carboxylic acid [2-(3S-dimethylamino-pyrrolidin-1-yl)-6-(4-trifluoromethyl-phenyl)-pyrimidin-4-ylmethyl]-amide] | 469
8 | CC(C)(C)OC(=O)N[C@H]1CCN(c2nc(CNC(=O)[C@@H]3CCCN3S(=O)(=O)c3ccc(Cl)s3)cc(-c3ccc(C(F)(F)F)cc3)n2)C1 [Example 34, {1-[4-({[1-(5-Chloro-thiophene-2-sulfonyl)-pyrrolidine-2S-carbonyl]-amino}-methyl)-6-(4-trifluoromethyl-phenyl)-pyrimidin-2-yl]-pyrrolidin-3S-yl}-carbamic acid tert-butyl ester] | 32
9 | CC(C)(C)OC(=O)N[C@@H]1CCN(c2nc(CNC(=O)[C@@H]3CCCN3S(=O)(=O)c3ccc(Cl)s3)cc(-c3ccc(C(F)(F)F)cc3)n2)C1 [Example 35, {1-[4-({[1-(5-Chloro-thiophene-2-sulfonyl)-pyrrolidine-2S-carbonyl]-amino}-methyl)-6-(4-trifluoromethyl-phenyl)-pyrimidin-2-yl]-pyrrolidin-3R-yl}-carbamic acid tert-butyl ester] | 83
10 | C[C@H](Nc1nc(CNC(=O)[C@@H]2CCCN2S(=O)(=O)c2ccc(Cl)s2)cc(-c2ccc(C(F)(F)F)cc2)n1)c1ccccn1 [Example 36, 1-(5-Chloro-thiophene-2-sulfonyl)-pyrrolidine-2S-carboxylic acid [2-(1-pyridin-2-yl-ethylamino)-6-(4-trifluoromethyl-phenyl)-pyrimidin-4S-ylmethyl]-amide] | 39
11 | N[C@H]1CCN(c2nc(CNC(=O)[C@@H]3CCCN3S(=O)(=O)c3ccc(Cl)s3)cc(-c3ccc(C(F)(F)F)cc3)n2)C1 [Example 39, 1-(5-Chloro-thiophene-2-sulfonyl)-pyrrolidine-2S-carboxylic acid [2-(3S-amino-pyrrolidin-1-yl)-6-(4-trifluoromethyl-phenyl)-pyrimidin-4-ylmethyl]-amide] | 1260
12 | N[C@@H]1CCN(c2nc(CNC(=O)[C@@H]3CCCN3S(=O)(=O)c3ccc(Cl)s3)cc(-c3ccc(C(F)(F)F)cc3)n2)C1 [Example 40, 1-(5-Chloro-thiophene-2-sulfonyl)-pyrrolidine-2S-carboxylic acid [2-(3R-amino-pyrrolidin-1-yl)-6-(4-trifluoromethyl-phenyl)-pyrimidin-4-ylmethyl]-amide] | 1650

More lines, in order of falling IC50, values ahead:

Row | IC50 [nM] | SMILES
13 | 24 | O=C(NCc1cc(-c2ccc(C(F)(F)F)cc2)nc(N2CCN(Cc3ccncc3)CC2)n1)[C@@H]1CCCN1S(=O)(=O)c1ccc(F)cc1 [Example 21, 1-(4-Fluoro-benzenesulfonyl)-pyrrolidine-2S-carboxylic acid [2-(4-pyridin-4-ylmethyl-piperazin-1-yl)-6-(4-trifluoromethyl-phenyl)-pyrimidin-4-ylmethyl]-amide]
14 | 16 | C[C@@H]1CCCN1c1nc(CNC(=O)[C@@H]2CCCN2S(=O)(=O)c2ccc(F)cc2)cc(-c2ccc(C(F)(F)F)cc2)n1 [Example 27, 1-(4-Fluoro-benzenesulfonyl)-pyrrolidine-2S-carboxylic acid [2-(2R-methyl-pyrrolidin-1-yl)-6-(4-trifluoromethyl-phenyl)-pyrimidin-4-ylmethyl]-amide]
15 | 13 | C[C@H]1CCCN1c1nc(CNC(=O)[C@@H]2CCCN2S(=O)(=O)c2ccc(F)cc2)cc(-c2ccc(C(F)(F)F)cc2)n1 [Example 26, 1-(4-Fluoro-benzenesulfonyl)-pyrrolidine-2S-carboxylic acid [2-(2S-methyl-pyrrolidin-1-yl)-6-(4-trifluoromethyl-phenyl)-pyrimidin-4-ylmethyl]-amide]
16 | 13 | C[C@@H]1CCCN1c1nc(CNC(=O)[C@@H]2CCCN2S(=O)(=O)c2ccc(Cl)s2)cc(-c2ccc(C(F)(F)F)cc2)n1 [Example 30, 1-(5-Chloro-thiophene-2-sulfonyl)-pyrrolidine-2(S)-carboxylic acid [2-(2R-methyl-pyrrolidin-1-yl)-6-(4-trifluoromethyl-phenyl)-pyrimidin-4-ylmethyl]-amide]
17 | 12 | CN(C)c1nc(CNC(=O)[C@@H]2CCCN2S(=O)(=O)c2ccc(Cl)s2)cc(-c2ccc(C(F)(F)F)cc2)n1 [Example 29, 1-(5-Chloro-thiophene-2-sulfonyl)-pyrrolidine-2S-carboxylic acid [2-dimethylamino-6-(4-trifluoromethyl-phenyl)-pyrimidin-4-ylmethyl]-amide]
18 | 9 | C[C@H]1CCCN1c1nc(CNC(=O)[C@@H]2CCCN2S(=O)(=O)c2ccc(Cl)s2)cc(-c2ccc(C(F)(F)F)cc2)n1 [Example 31, 1-(5-Chloro-thiophene-2-sulfonyl)-pyrrolidine-2S-carboxylic acid [2-(2S-methyl-pyrrolidin-1-yl)-6-(4-trifluoromethyl-phenyl)-pyrimidin-4-ylmethyl]-amide]
19 | 7 | C[C@@H](Nc1nc(CNC(=O)[C@@H]2CCCN2S(=O)(=O)c2ccc(Cl)s2)cc(-c2ccc(C(F)(F)F)cc2)n1)c1ccccn1 [Example 37, 1-(5-Chloro-thiophene-2-sulfonyl)-pyrrolidine-2S-carboxylic acid [2-(1-pyridin-2-yl-ethylamino)-6-(4-trifluoromethyl-phenyl)-pyrimidin-4R-ylmethyl]-amide]
20 | 6 | CN(C(=O)OC(C)(C)C)C1CCN(c2nc(CNC(=O)[C@@H]3CCCN3S(=O)(=O)c3ccc(Cl)s3)cc(-c3ccc(C(F)(F)F)cc3)n2)C1 (stereo partly drawn) [Example 38, {1-[4-({[1-(5-Chloro-thiophene-2-sulfonyl)-pyrrolidine-2S-carbonyl]-amino}-methyl)-6-(4-trifluoromethyl-phenyl)-pyrimidin-2-yl]-pyrrolidin-3-yl}-methyl-carbamic acid tert-butyl ester]
